Assay results: patent US20200016159A1, “N3-CYCLICALLY SUBSTITUTED THIENOURACILS AND USE THEREOF” (Bayer Aktiengesellschaft, priority 2016, published 2020)

Target: T1, human adenosine A2b receptor (Homo sapiens, UniProt P29275)
T1 sequence (P29275 1-332): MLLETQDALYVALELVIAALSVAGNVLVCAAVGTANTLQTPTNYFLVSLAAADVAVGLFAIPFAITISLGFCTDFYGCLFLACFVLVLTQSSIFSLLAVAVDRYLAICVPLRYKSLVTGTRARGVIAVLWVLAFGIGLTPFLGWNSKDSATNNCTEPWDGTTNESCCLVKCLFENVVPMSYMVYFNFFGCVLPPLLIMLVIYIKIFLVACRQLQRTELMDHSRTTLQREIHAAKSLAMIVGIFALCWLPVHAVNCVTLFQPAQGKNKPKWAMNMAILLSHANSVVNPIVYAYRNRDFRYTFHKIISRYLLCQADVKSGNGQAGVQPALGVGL
Assay: Cellular in vitro reporter gene test for A2b receptor activity (antagonism of NECA)
Type: cell-based
Set-up: expressed in transfected cells; host or cells: CHO-K1 (Chinese hamster ovary) with CRE-luciferase reporter
Conditions: recombinant CHO-K1 cells, CRE-luciferase reporter, co-incubation with EC50 concentration of NECA, 3 hours
Summary of the method: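 CHO-K1 cells expressing recombinant human A2b receptor plus a CRE-driven firefly luciferase reporter. Compounds co-incubated with NECA at its same-day EC50 concentration; luminescence read 3 hours after NECA addition. IC50 values, sometimes means of several determinations rounded to two significant figures.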

| IC50 [nM] | SMILES |
| --- | --- |
| 7.3 | Cc1c(CN2CCNC2=O)sc2c1c(=O)n(C1CC1(C)C)c(=O)n2CCC(F)(F)F (single isomer, unassigned) [Example 102, 3-(2,2-Dimethylcyclopropyl)-5-methyl-6-[(2-oxoimidazolidin-1-yl)methyl]-1-(3,3,3-trifluoropropyl)thieno[2,3-d]pyrimidine-2,4(1H,3H)-dione] |
| 35 | COCCn1c(=O)n(C2CC2(C)C)c(=O)c2c(C)c(CN3CCNC3=O)sc21 (single isomer, unassigned) [Example 104, 3-(2,2-Dimethylcyclopropyl)-1-(2-methoxyethyl)-5-methyl-6-[(2-oxoimidazolidin-1-yl)methyl]thieno[2,3-d]pyrimidine-2,4(1H,3H)-dione] |
| 92 | COCCn1c(=O)n(C2CC2(C)C)c(=O)c2c(C)c(CN3CCNC3=O)sc21 (single isomer, unassigned) [Example 105, 3-(2,2-Dimethylcyclopropyl)-1-(2-methoxyethyl)-5-methyl-6-[(2-oxoimidazolidin-1-yl)methyl]thieno[2,3-d]pyrimidine-2,4(1H,3H)-dione] |
| 910 | Cc1c(Cn2nc[nH]c2=O)sc2c1c(=O)n(C1CC1)c(=O)n2CC1CCCC1(F)F (single isomer, unassigned) [Example 207, 3-Cyclopropyl-1-[(2,2-difluorocyclopentyl)methyl]-5-methyl-6-[(5-oxo-4,5-dihydro-1H-1,2,4-triazol-1-yl)methyl]thieno[2,3-d]pyrimidine-2,4(1H,3H)-dione] |
| 10 | Cc1c(Cn2nc[nH]c2=O)sc2c1c(=O)n(C1CC1)c(=O)n2CC1CCCC1(F)F (single isomer, unassigned) [Example 208, 3-Cyclopropyl-1-[(2,2-difluorocyclopentyl)methyl]-5-methyl-6-[(5-oxo-4,5-dihydro-1H-1,2,4-triazol-1-yl)methyl]thieno[2,3-d]pyrimidine-2,4(1H,3H)-dione] |
| 200 | Cc1c(Cn2nc[nH]c2=O)sc2c1c(=O)n(C1CC1)c(=O)n2CC1CCC(F)(F)C1 (single isomer, unassigned) [Example 210, 3-Cyclopropyl-1-[(3,3-difluorocyclopentyl)methyl]-5-methyl-6-[(5-oxo-4,5-dihydro-1H-1,2,4-triazol-1-yl)methyl]thieno[2,3-d]pyrimidine-2,4(1H,3H)-dione] |
| 1300 | Cc1c(Cn2nc[nH]c2=O)sc2c1c(=O)n(C1CC1)c(=O)n2CC1CCC(F)(F)C1 (single isomer, unassigned) [Example 211, 3-Cyclopropyl-1-[(3,3-difluorocyclopentyl)methyl]-5-methyl-6-[(5-oxo-4,5-dihydro-1H-1,2,4-triazol-1-yl)methyl]thieno[2,3-d]pyrimidine-2,4(1H,3H)-dione] |
| 1.6 | Cc1c(CN2CCNC2=O)sc2c1c(=O)n(C1CC1C)c(=O)n2C (single isomer, unassigned) [Example 222, 1,5-Dimethyl-3-(2-methylcyclopropyl)-6-[(2-oxoimidazolidin-1-yl)methyl]thieno[2,3-d]pyrimidine-2,4(1H,3H)-dione] |
| 19 | Cc1c(CN2CCNC2=O)sc2c1c(=O)n(C1CC1C)c(=O)n2C (single isomer, unassigned) [Example 223, 1,5-Dimethyl-3-(2-methylcyclopropyl)-6-[(2-oxoimidazolidin-1-yl)methyl]thieno[2,3-d]pyrimidine-2,4(1H,3H)-dione] |
| 26 | CCn1c(=O)n(C2CC2C)c(=O)c2c(C)c(CN3CCNC3=O)sc21 (single isomer, unassigned) [Example 225, 1-Ethyl-5-methyl-3-(2-methylcyclopropyl)-6-[(2-oxoimidazolidin-1-yl)methyl]thieno[2,3-d]pyrimidine-2,4(1H,3H)-dione] |
| 1.9 | CCn1c(=O)n(C2CC2C)c(=O)c2c(C)c(CN3CCNC3=O)sc21 (single isomer, unassigned) [Example 226, 1-Ethyl-5-methyl-3-(2-methylcyclopropyl)-6-[(2-oxoimidazolidin-1-yl)methyl]thieno[2,3-d]pyrimidine-2,4(1H,3H)-dione] |
